As usually defined, the kcat/KM is the second-order rate constant that governs catalysis at low substrate concentration.

The source of these data is PMC2922960 (Bioorganic & medicinal chemistry letters, 2009).

Assay [1] addresses T1, recombinant mammalian FTase (Homo sapiens, UniProt P49354+P49356). The experiment in a line: HPLC analysis of farnesylated peptide product formation. In kind it is biochemical. Particulars: 3 μM peptide, 9 μM FPP, 0.05 μM FTase; for HPLC: formation of farnesylated peptide product: after 60 min incubation with FTase.
The target of assay [2] is FTase (Homo sapiens, UniProt P49354+P49356). The experiment in a line: steady-state kinetic assay. Particulars: saturating FPP (10 μM), 0.2-10 μM dansylated peptide, 20-100 nM FTase, 50 mM HEPPSO pH 7.8, 5 mM TCEP, 5 mM MgCl2, 25 °C; fluorescence λex 340 nm, λem 520 nm. In kind it is biochemical, mammalian.
Assay [3] addresses T1, recombinant mammalian FTase. The experiment in a line: continuous spectrofluorimetric assay of FTase substrate activity. Particulars: from fluorescence screen and HPLC confirmation. Type of assay: biochemical.
Assay [4] concerns FTase. Particulars: cited from earlier work.

Turning to CAIL, in assay [1], the “HPLC: formation of farnesylated peptide product” value (“HPLC: formation” for short) is “+++”. Also, the specificity constant (kcat/KM) in assay [2] is 27000 ± 2000 M⁻¹ s⁻¹.

Turning to CALL, in assay [1], the “HPLC: formation” value is listed as “+ (25% to 50% conversion to product)”.

Turning to CAYL, the “HPLC: formation” value in assay [1] is recorded as “− −”.

In the case of CCLL, the “HPLC: formation” value in assay [1] is “+ (25% to 50% conversion to product)”.

For the substance CCSL, the “HPLC: formation” value in assay [1] is given as “− −”.

For the substance CCVL, the “HPLC: formation” value in assay [1] was “+++”. In addition, the catalytic efficiency (kcat/KM) in assay [2] stood at 7000 ± 1000 M⁻¹ s⁻¹.

On to CEKL, for which the “HPLC: formation” value in assay [1] is recorded as “− −”.

As to CGCL, the “HPLC: formation” value in assay [1] is on record as “− −”.

Take CGGL: in assay [1], the “HPLC: formation” value is “− −”.

For the substance CGQL, in assay [1], the “HPLC: formation” value was “− −”.

For CHAL, in assay [1], the “HPLC: formation” value is “− −”.

As for CHPL, the “HPLC: formation” value in assay [1] is reported as “− −”.

For the substance CIIL, the “HPLC: formation” value in assay [1] was “+++”. Also, the kcat/KM in assay [2] was 43000 ± 8000 M⁻¹ s⁻¹.

For the substance CILL, the “HPLC: formation” value in assay [1] is listed as “++”. For the same substance, the specificity constant (kcat/KM) in assay [2] was found to be 8000 ± 2000 M⁻¹ s⁻¹.

Regarding CKVL, in assay [3], the “FTase substrate ability (category in words)” value (from here on “FTase substrate ability”) is on record as “relatively modest FTase substrates”. Moreover, in assay [1], the “HPLC: formation” value was “+ (25% to 50% conversion to product)”.

Take CLGL: the “HPLC: formation” value in assay [1] is recorded as “− −”.

For CLIL, the “FTase substrate ability” value in assay [3] is recorded as “confirmed substrates”. Also, the “HPLC: formation” value in assay [1] is reported as “++”.

Take CLLL: the “FTase substrate ability” value in assay [3] is recorded as “poor FTase substrate”. Also, the “HPLC: formation” value in assay [1] is “+ (25% to 50% conversion to product)”.

On to CLQL, for which the “HPLC: formation” value in assay [1] is “− (less than 25% conversion)”.

Regarding CLVL, in assay [1], the “HPLC: formation” value is “+ (25% to 50% conversion to product)”.

As for CMEL, the “HPLC: formation” value in assay [1] was “− −”.

On to CNIL, for which the “HPLC: formation” value in assay [1] is recorded as “++”. Moreover, in assay [2], the kcat/KM was 12000 ± 900 M⁻¹ s⁻¹.

In the case of CNPL, in assay [1], the “HPLC: formation” value is recorded as “− −”.

With CPIL, the “FTase substrate ability” value in assay [3] is “confirmed substrates”. For the same substance, the “HPLC: formation” value in assay [1] is recorded as “+ (25% to 50% conversion to product)”.

CQLL: the “HPLC: formation” value in assay [1] is “− (less than 25% conversion)”.

Consider CQNL, for which, in assay [1], the “HPLC: formation” value was “− −”.

As to CRLL, the “HPLC: formation” value in assay [1] was “+ (25% to 50% conversion to product)”.

In the case of CSFL, in assay [1], the “HPLC: formation” value is recorded as “− −”.

Regarding CSIL, the “HPLC: formation” value in assay [1] is recorded as “+++”. In assay [2], the kcat/KM was 5000 ± 1000 M⁻¹ s⁻¹.

Take CSLL: the “HPLC: formation” value in assay [1] was “− (less than 25% conversion)”.

For the substance CSQL, the “HPLC: formation” value in assay [1] is recorded as “− −”.

Regarding CSTL, the “HPLC: formation” value in assay [1] is given as “− −”.

For the substance CSVL, the “HPLC: formation” value in assay [1] is given as “+ (25% to 50% conversion to product)”.

Take CTAL: the “HPLC: formation” value in assay [1] is reported as “− −”.

Consider CTIL, for which the “HPLC: formation” value in assay [1] was “++”. In addition, the kcat/KM in assay [2] was found to be 33000 ± 7000 M⁻¹ s⁻¹.

In the case of CTLL, the “HPLC: formation” value in assay [1] is reported as “+ (25% to 50% conversion to product)”.

As for CVGL, the “HPLC: formation” value in assay [1] is “− −”.

For the substance CVLL, the “FTase substrate ability” value in assay [3] is given as “relatively modest FTase substrates”. The “HPLC: formation” value in assay [1] is “+ (25% to 50% conversion to product)”.

DnGCCIL: in assay [3], the “FTase substrate ability” value was “efficient FTase substrate”. The “HPLC: formation” value in assay [1] is recorded as “+++”. Also, in assay [2], the specificity constant (kcat/KM) came to 23000 ± 3000 M⁻¹ s⁻¹.

In the case of DnGCLML, the “FTase substrate ability” value in assay [3] is reported as “good FTase substrate”. Moreover, in assay [1], the “HPLC: formation” value was “++”. Also, the kcat/KM in assay [2] stood at 8100 ± 500 M⁻¹ s⁻¹.

As for DnGCVIL, the “HPLC: formation” value in assay [1] is “+++”. In assay [2], the catalytic efficiency (kcat/KM) was found to be 47000 ± 8000 M⁻¹ s⁻¹.

In the case of DnGCVLS [reference compound], in assay [1] (after 15 minutes), the “turnover to farnesylated product” value was “complete turnover”.

For DnTKCVIL, the “FTase substrate activity under single turnover conditions” value in assay [4] (single turnover conditions) is reported as “FTase substrate”. Further, in assay [4] (steady-state conditions), the “FTase turnover under steady-state conditions” value was “did not exhibit efficient turnover”.
